According to the NIST ThermoML archive (doi:10.1016/j.jct.2012.05.023):
Numbers after ± are expanded uncertainties.

Test: xn = mol fraction of the nth substance listed
Details: 101.3 kPa, Liquid; for mass density: Vibrating tube method; for speed of sound: Sing-around technique in a fixed-path interferometer

c1ccc2c(c1)CCCC2 [1,2,3,4-tetrahydronaphthalene] + CCCCCCCCCCCC
Details	mass density, 303.15 K [kg/m3]	mass density, 313.15 K [kg/m3]	mass density, 323.15 K [kg/m3]	mass density, 333.15 K [kg/m3]	mass density, 343.15 K [kg/m3]	speed of sound, 313.15 K [m/s]	speed of sound, 323.15 K [m/s]	speed of sound, 333.15 K [m/s]	speed of sound, 343.15 K [m/s]
x1 = 0.1021	755.74 ± 0.24	748.42 ± 0.24	741.07 ± 0.25	733.68 ± 0.25	726.25 ± 0.25	1232.1 ± 1.2	1194.9 ± 1.2	1158.3 ± 1.2	1122.2 ± 1.2
x1 = 0.2015	770.65 ± 0.24	763.25 ± 0.24	755.85 ± 0.24	748.42 ± 0.25	740.94 ± 0.25	1242.2 ± 1.2	1205.4 ± 1.2	1168.6 ± 1.2	1132.6 ± 1.2
x1 = 0.307	787.92 ± 0.24	780.5 ± 0.24	773.06 ± 0.24	765.58 ± 0.24	758.06 ± 0.24	1255.9 ± 1.2	1218.9 ± 1.2	1182.6 ± 1.2	1146.8 ± 1.2
x1 = 0.3998	804.53 ± 0.24	797.07 ± 0.24	789.61 ± 0.24	782.08 ± 0.24	774.5 ± 0.24	1268.5 ± 1.2	1231.6 ± 1.2	1195.2 ± 1.2	1159.3 ± 1.2
x1 = 0.4985	823.91 ± 0.24	816.39 ± 0.24	808.85 ± 0.24	801.28 ± 0.24	793.67 ± 0.24	1284.3 ± 1.2	1247.4 ± 1.2	1211 ± 1.2	1175.4 ± 1.2
x1 = 0.5961	845.1 ± 0.24	837.52 ± 0.24	829.89 ± 0.24	822.25 ± 0.24	814.59 ± 0.24	1301.5 ± 1.2	1264.5 ± 1.2	1228.2 ± 1.2	1192.4 ± 1.2
x1 = 0.7019	870.59 ± 0.24	862.94 ± 0.24	855.26 ± 0.24	847.55 ± 0.24	839.81 ± 0.24	1323.6 ± 1.2	1286.7 ± 1.2	1250.3 ± 1.2	1214.6 ± 1.2
x1 = 0.8012	897.44 ± 0.24	889.71 ± 0.24	881.98 ± 0.24	874.21 ± 0.24	866.35 ± 0.24	1347.6 ± 1.2	1310.5 ± 1.2	1274 ± 1.2	1238.2 ± 1.2
x1 = 0.8998	927.23 ± 0.25	919.41 ± 0.25	911.58 ± 0.25	903.72 ± 0.25	895.83 ± 0.25	1376.6 ± 1.2	1339.2 ± 1.2	1302.5 ± 1.2	1266.4 ± 1.2
x1 = 1	961.59 ± 0.23	953.66 ± 0.23	945.72 ± 0.23	937.77 ± 0.23	929.8 ± 0.23	1411.5 ± 1.2	1373.6 ± 1.2	1336.4 ± 1.2	1299.8 ± 1.2
